{"source": "patent US20080064053A1", "about": "“Genotoxicity Testing” (priority 2003, published 2008)", "key": {"[1]": {"system": "RNR2 regulatory element-GFP reporter", "assay": "RNR2-GFP reporter assay (pGenRNR2), cuvette and microplate", "format": "cell-based, Saccharomyces cerevisiae", "settings": "yeast test strain transformed with pGenRNR2", "excerpt": "(§1) In addition to the RAD54 vectors described in the previous Examples, the inventors constructed an FF18984 reporter strain containing a replicative plasmid harbouring an RNR regulatory element. The vectors pGenRNR2 or pGenRNR3 are shown in FIGS. 24 and 25, respectively, and contain the upstream non-coding DNA sequence of the RNR2 gene or RNR3 gene fused to the yeast-enhanced Aequorea victoria GFP gene. A control FF18984 strain containing an identical plasmid except that 2 base pairs have been removed at the start of the GFP gene, such that no GFP is made, was also examined.\nIn order to test the brightness of the reporter for RNR2 constructs, similar methodology was used as for RAD54 constructs, as described in the previous Examples, but using instead pGENRNR2."}, "[2]": {"system": "yeast strain GenT01 (FF18984)", "assay": "GreenScreen assay (GSA), cytotoxicity: final cell density by absorbance", "settings": "GenT01 yeast, overnight at 25° C.", "protocol": "The following standard protocol was followed. A 1 mM stock of the test chemical was prepared in 2% v/v aqueous DMSO, and used to make 2 identical dilution series across the microplate and a ‘control’ (see below). To achieve this, 150 microlitres of the test chemical solution were put into 2 microplate wells. Each sample was serially diluted by transferring 75 microlitres into 75 microlitres of 2% DMSO, mixing, and then taking 75 microlitres out and into the next well. This produced 9 serial dilutions of 75 microlitres each.\n75 microlitres of the yeast suspension were added to each well of the diluted chemical: GenT01 to one series and GenC01 to the second, and to appropriate standards and controls. After the plates were filled, they were sealed using either a gas permeable membrane (Breath-easy, Diversified Biotech, USA) or a plastic lid, and then incubated without shaking, overnight at 25° C.\nFollowing overnight incubation, fluorescence and absorbance data were collected from the microplates. […] Absorbance was measured through a 620 nm filter in both instruments. […] Fluorescence data were divided by absorbance data to give ‘brightness units’, the measure of average GFP induction per cell. […] In this way, one can distinguish between a small number of highly fluorescent cells and a large number of weakly fluorescent cells. In order to correct for induced cellular autofluorescence and intrinsic compound fluorescence, the brightness values for the GenC01 strain were subtracted from those of GenT01. This makes visual assessment of the data more reliable.\nThe cytotoxicity threshold is set at 80% of the cell density reached by the untreated control cells.\nTable 12 lists chemicals/solvents that are often used with test samples, to promote dissolution etc. […] If these chemicals are used to dissolve compound stock solutions, they should also be included in the diluent used to make the compound dilution series. […] Interference of DMSO, a free radical scavenger, in the recombinogenic properties of several oxidising agents has previously been reported."}, "SOS lux": {"system": "SOS lux", "settings": "cited from earlier work"}, "[3]": {"system": "RAD54 promoter-yEGFP reporter", "assay": "Fluorescence assay with intact yeast cells in cuvettes, RAD54-GFP reporter plasmid pWDH445 and rearranged derivatives", "format": "cell-based, Saccharomyces cerevisiae", "settings": "0.005% MMS, 15 hours", "protocol": "Starter cultures were initiated by inoculating 1.5 ml of F1 medium (plus appropriate nutritional supplements and 2% glucose) in sterile 15 ml polythene centrifuge tubes with small portions of colonies, picked by inoculating loop from stock plates. These starter cultures were grown for up to 24 hours at 30° C. with shaking (at 120 rpm) and were used as the source of inoculum for the assay cultures. Cells were inoculated into 1.5 ml F1 cultures in 15 ml polythene centrifuge tubes to give an initial OD600 nm of ˜0.1 (typically a 10-15 μl inoculum per 1.5 ml culture). The lids of the tubes were left one-quarter unscrewed, but held in place by masking tape, to ensure maximum oxygenation for GFP maturation. Half of the tubes were treated with 0.005% methyl methanesulphonate (MMS, methanesulphonic acid methyl ester) and half left as unchallenged controls. MMS was purchased as a liquid and this stock solution was taken to be 100%. […] For the measurement of intact yeast cell fluorescence of cells grown in YPD or SD, the cells were washed twice in sterile water to remove traces of autofluorescent medium and resuspended in 1.5 ml of sterile water. […] 4-window cuvettes were necessary since measurement of fluorescence emission is performed perpendicular to the path of excitation light.\nFluorescence measurements were performed with a Perkin-Elmer LS50B Fluorescence Spectrometer (Perkin-Elmer Ltd., Beaconsfield, UK). […] For the yEGFP expressing reporter, the excitation and emission wavelengths were set to 490 nm and 518 nm respectively (due to the altered fluorescence characteristics of yEGFP), with 5 nm slit widths. To account for differences in cell numbers between YPD or SD assay cultures, the OD600 nm was recorded for each cuvette. Similarly, in order to measure protein extraction efficiency, light absorption at 280 nm (OD280 nm) was measured for crude cell extracts. […] The y-axis on uncorrected fluorescence scans gives raw data in the form of machine defined fluorescence intensity (“INT”) units. […]"}, "[4]": {"system": "RAD54 promoter-GFP reporter (pGen001)", "settings": "for GSA genotoxicity result: GenT01 yeast, overnight at 25° C., 2% DMSO diluent, no S9"}, "[5]": {"system": "RNR3 regulatory element-GFP reporter", "assay": "RNR3-GFP reporter microplate assay (pGenRNR3)", "format": "cell-based, Saccharomyces cerevisiae", "settings": "yeast test strain transformed with pGenRNR3", "excerpt": "as §1\nIn order to test the brightness of the reporter for RNR3 constructs, similar methodology was used as for RAD54 constructs, as described in the previous Examples, but using instead pGENRNR3."}, "SOS umuC": {"system": "SOS umuC", "settings": "cited from earlier work"}}, "note": "Where “and” joins values, the source holds several entries; their conditions need not be identical. Identical values can stand only once. Like-named read-outs stand apart in the source and are kept apart here."}
{"smiles": "COS(C)(=O)=O", "note": "[MMS, methyl methanesulfonate]", "values": [{"measurement": "brightness/fluorescence of GFP reporter", "setting": "[1]", "result": "induced"}, {"measurement": "GSA cytotoxicity result", "setting": "[2]", "result": "strongly cytotoxic"}, {"measurement": "SOS LUX ASSAY (M), LEC", "setting": "SOS lux", "result": "7.3e-05", "unit": "M"}, {"measurement": "induction ratio", "setting": "[3]; FF18984 cells bearing normal pWDH445", "result": "7.72 and 5.5"}, {"measurement": "induction ratio", "setting": "[3]; FF18984 cells re-transformed with modified (rearranged) plasmid", "result": 5.2}, {"measurement": "induction ratio", "setting": "[3]; original bright variant FF18984 cells carrying pWDH445", "result": 3.27}, {"measurement": "GSA genotoxicity result", "setting": "[4]", "result": "induced"}, {"measurement": "GSA genotoxicity result", "setting": "[4]; listed as Methyl methanesulfonate", "result": "genotoxic"}, {"measurement": "GSA (M), lowest effective concentration (LEC)", "setting": "[4]; S9 −", "result": "9.3e-06", "unit": "M"}, {"measurement": "fluorescence induction by the reporter", "setting": "[5]", "result": "increases with increasing concentration"}, {"measurement": "SOS UMUC ASSAY (M), LEC", "setting": "SOS umuC", "result": 0.00015, "unit": "M"}]}
